Laboratory results published in patent publication US20260327263A1, “Anti-Bacterial Peptides” (priority 2023, published 2026).
“Also recorded” adds a separate entry of the source. Where no end group is shown, it is not given here.

Columns and labels:
[1] = tested on: Pseudomonas aeruginosa (PA); test: Live-dead staining of bacteria (membrane damage); format: cell-based, Pseudomonas aeruginosa (ATCC 14213)
Method: FIG. 2 verifies the effects of exemplary variant peptides in disrupting bacterial membranes. To test whether exemplary peptide E1AM2 causes membrane damage in bacteria, live and dead staining of exemplary bacteria strain Pseudomonas aeruginosa (ATCC 14213, PA) are performed in the presence of different concentrations of E1AM2 peptide. […] Scale bar-3 μm. The lesser number of PA cells observed upon E1AM2 treatment at these concentrations is due to leaking of the bacteria caused by membrane disruption. Thus, peptide variants with the cationic arm show bacterial membrane disrupting ability. FIG. 2B provides a quantification of Syto-9 and PI-positive Pseudomonas aeruginosa (PA) cells 24 hours post E1AM2 treatment.
Scale bar=3 μm. […] The percentage of PA cells with (PI-positive, red) and without (Syto-9 stained, green) membrane damage following E1AM2 V8LQ19L peptide treatment are shown.
PA was treated with E1AM2 for 24 hours followed by live-dead saining in accordance to the manufacturers' instruction (LIVE/DEAD™ BacLight™ Bacterial Viability Kit, for microscopy & quantitative assays).

[2] = tested on: Staphylococcus aureus (SA); test: Time-kill assay, Staphylococcus aureus; format: cell-based; conditions: for time to kill SA (in words): 1X MBC; for Time kill SA, >99% killing: at 1X MBC, * indicates killing within seconds
Method: (§1) The bactericidal abilities of the variant peptides are not only effective, but also fast-acting. […] The killing kinetics are detailed in Table 11 below.
(§2) Pseudomonas aeruginosa (PA) and Staphylococcus aureus (SA) strains were grown as per CLSI guidelines. AMPs were added to the bacterial cultures at their 1X MBC concentrations. Upon treatment, the bacterial cultures were enumerated for viable counts immediately within 1 min, 5 min, 15 min, 30 min and 60 min post-treatments.

[3] = tested on: Pseudomonas aeruginosa (PA); test: Time-kill assay, Pseudomonas aeruginosa; format: cell-based; conditions: for time to kill PA (in words): 1X MBC; for Time kill PA, >99% killing: at 1X MBC, * indicates killing within seconds
Method: as §1, §2

[4] = tested on: human keratinocytes; test: 2D scratch assay, keratinocyte migration; format: cell-based
Method: Wound healing is directly associated with the migration speed of keratinocytes. The migration speed of human keratinocytes in presence of E1AM2, V8L (SEQ ID NO: 19), and Q19L variants is tested in comparison with pexiganan (SEQ ID NO: 54). Migration speed of human keratinocytes assessed in a 2D scratch assay at D 0 and D 2 timepoints. Decrease in wound area over time was measured by applying an ImageJ plugin ‘Wound Healing Size Tool’ on bright-field images. The change in wound area over the course of 48 hours was used as a measure of the migration speed of keratinocytes. Each value is the mean±SD (n=3). The p-value was calculated using ANOVA for multiple comparisons (Dunnett's multiple comparisons test). **** p<0.0001. *** p<0.001. ** p <0.01. * p<0.05. […] Both peptides healed wound faster within their respective MIC and MBC concentrations. […] SEQ ID NO: 27=Q19L; SEQ ID NO: 2=E1AM2; SEQ ID NO: 19=V8L.
Wound closure was compared with the untreated samples (circle, red highlight). For improved clarity, error bars have been omitted from this representation. […] Each value is the mean±SD (n=3). Statistical significance was assessed using ANOVA for multiple comparisons (Dunnett's multiple comparisons test). **** p<0.0001, *** p<0.001, ** p<0.01, *p<0.05, ns denotes nonsignificance, p >0.05.
Wound areas of the human keratinocyte culture were assessed in presence of peptides in a 2D scratch assay at the 0 hour, and 48-hour time points by applying an ImageJ plugin, ‘Wound Healing Size Tool’ on brightfield images. Quantification of wound width was calculated by obtaining the averaged Euclidean distance between each paired pixel at the lateral wound edges. The change in wound area over the course of 48 hours was used as a measure of the migration speed of keratinocytes.
Using the inverted BioTek Lionheart LX Automated Microscope, brightfield images were obtained at 4× magnification to observe the wound area at timepoints 0 (before treatment) and 48 hours-post treatment. Microscopy settings were maintained as focus offset (781.3 μm), illumination (2), integration Time (21) with no gain. To cover the entire well, montage images of four rows by three columns were stitched together by enabling the “image stitching” function and images were saved in tiff-format.

[5] = tested on: human red blood cells (hRBCs); test: Hemolysis assay; format: cell-based; conditions: for minimum concentration corresponding to 10% hemolysis (HC) / hemolysis (in words): hRBCs; for minimum concentration corresponding to 10% hemolysis (HC): 37° C.; for hemolysis (in words): FIG. 8 up to 100 μM
Method: The hemolytic score of the peptide variants and pexiganan (SEQ ID NO: 54) are compared to a strong hemolytic peptide, melittin 12 as a control. […] The minimum peptide concentration corresponding to 10% hemolysis (minimal hemolysis concentration, HC) of E1AM2=50 μM, V8LQ19L=12.5 μM, V8LQ19L C-2=3.125 μM, and pexiganan=12.5 μM respectively. Readings of the melittin at 3.125 μM were normalised to 100%.
Examination of hemolytic activity of ultra-short peptides was performed by isolating the red blood cells (RBCs) from human blood samples by centrifugation (1000 g, 4° C., 10 min) and resuspension in 27 mL PBS. This washing step was repeated four times before the RBCs were diluted to a 10% (v/v) suspension. […] Hemolytic properties of E1AM2 and pexiganan were evaluated with melittin used as a positive control, and PBS as a negative control. The plates were incubated at 37° C., for 30 min and then centrifuged (1258 g, 4° C., 6 min). 75 μL of supernatant were transferred into a flat-bottom clear 96-well plate and the OD576 nm was read. Readings of the melittin sample at 3.125 μM were normalized to 100%.

Substance	mechanism of bacterial killing (live/dead) ([1]; FIG. 12)	time to kill SA (in words) [2]	Time kill SA, >99% killing [2]	time to kill PA (in words) [3]	Time kill PA, >99% killing [3]	wound closure, 2D scratch ([4]; up to 16X MBC)	minimum concentration corresponding to 10% hemolysis (HC) ([5]; 30 min) [µM]	hemolysis (in words) [5]	incorporation of propidium iodide (PI), membrane damage ([1]; at 1× MIC (3.125 μM) and 1X MBC (6.25 μM), 24 h) [%]	migration speed of keratinocytes ([4]; 48 h, E1AM2 3.125-12.5 μM, Q19L 3.125-6.25 μM)	hemolysis ([5]; at respective MIC/MBC concentrations, melittin 3.125 μM = 100%, 30 min)
KKLLKKWLKLSKKALKLALSL-NH2 [V8LQ19L]	primarily through membrane damage	within seconds	1* min	within seconds	1* min	did not impair wound healing	12.5	do not cause hemolysis	–	–	–
E1AM2: untagged (E1AM2), KKLLKKWVKLSKKALKLAQSL	–	within minutes	1 min	within minutes	1 min	–	50	do not cause hemolysis	100	increase keratinocyte migration; also recorded: increased the migration speed of keratinocytes significantly	~ 0%
